Assay results from patent publication US12377086B2, “Therapeutic methods, combinations and kits” (priority 2021, dated 2025).
Like-named read-outs stand apart in the source and are kept apart here.

Key:
VIM-2 = VIM-2 (Pseudomonas aeruginosa, UniProt Q5U7L7); experiment: biochemical
Description: The pET24a-VIM-2 plasmid was transformed into competent BL21 (DE3) E. coli cells. The cells were plated onto an LB-agar plate with kanamycin (25 μg/mL) and incubated overnight at 37° C. A single colony was used to inoculate 50 mL of LB, containing 25 μg/mL kanamycin, and the culture was shaken overnight at 37° C. From the overnight culture, 10 mL were transferred to 4×IL LB medium containing 25 μg/mL kanamycin. The cultures were grown at 37° C. until an optical density (OD600 nm) of 0.6-0.8 was reached, at which point protein production was induced with IPTG (0.5 mM) and ZnCl2 (100 μM). The temperature was reduced to 20° C., and the cells were shaken for an additional 18 h. The cultures were harvested by centrifugation (8 Kxg) for 10 min at 4° C. The resulting pellets were re-suspended in 25 mL of 50 mM HEPES, pH 7.5, containing 500 mM NaCl (buffer B). The cells were lysed with three passes through a French Press. The lysate was centrifuged (15 Kxg) for 30 min at 4° C. The supernatant was dialyzed against 2 L of 50 mM HEPES, pH 7.5 (buffer A), for 4 h. Buffer A was used to equilibrate a 25 mL Q-Sepharose column using an FPLC. The sample was loaded onto the column, and proteins were eluted with a linear gradient 0-500 mM NaCl with buffer B. Fractions containing VIM-2, determined by SDS-PAGE, were pooled and concentrated to 2-3 mL in an Amicon ultraconcentrator equipped YM-10 membrane. Further purification was conducted with a Sephacryl S-200 gel filtration column using 50 mM HEPES, pH 7.5, containing 150 mM NaCl. Fractions containing pure VIM-2 were pooled, and metal analysis was performed.
(§1) To identify potential MBL inhibitors, the relative change in the formation of hydrolyzed nitrocefin between treated and untreated MBL was determined as percentage inhibition. 5 nM of each BML was pre-incubated for 10 mins with 50 μM of each compound, followed by the addition of 10 μM nitrocefin.
(§2) Each MBL was incubated with 50 μM of each compound, followed by the addition of nitrocefin. The relative change in absorbance is reported as percentage inhibition.

NDM-1 = NDM-1 (Klebsiella pneumoniae, UniProt C7C422); experiment: biochemical
Description: BL21 (DE3) E. coli cells containing the pET26b-ndm-1 plasmid were used to inoculate a 50 mL LB starter culture containing kanamycin (25 μg/mL). The culture was grown overnight at 37° C. The starter culture was then used to inoculate 4×1 L LB containing kanamycin (25 μg/mL). These flasks were incubated at 37° C. until culture reached an optical density of (OD600) of 0.6 to 0.8. The incubator was then set to 22° C. and the cultures were shaken for 30 min to allow them to cool. ZnCl2 ([…]) and IPTG (0.5 mM) were then added to the cultures and they were grown for 18 h at 22° C. The cells were then harvested using centrifugation (8000×g) for 10 min. The pellet was resuspended with 25 mL 50 mM HEPES, pH 7.5 containing 500 mM NaCl (Buffer B). Lysis was performed with three passes through a French Press. The lysate was centrifuged for 30 min (15,000×g) at 4° C. The supernatant was then dialyzed versus 2 L 50 mM HEPES, pH 7.5 (Buffer C) for 4 h. An FPLC was used to equilibrate a Q-Sepharose column using buffer C using a flowrate of 2.0 mL/min for 1.5 h. The lysate was then loaded onto the column and eluted with a linear NaCl gradient from 0-500 mM. Fractions containing NDM-1 were identified with SDS-PAGE. These fractions were pooled and concentrated to 2-3 mL in an Amicon ultracentrifugation concentrating unit with a YM-10 membrane. The resulting protein mixture was then loaded onto a Sephacryl S-200 gel filtration column run with 50 mM HEPES, pH 7.5 containing 150 mM NaCl (Buffer A). SDS-PAGE was used to identify fractions containing pure protein.
as §1, §2

[1] = 50 μM compound, 5 nM MBL, 10 μM nitrocefin, 30 mins, read-out: VIM-2 percentage inhibition
[2] = 50 μM compound, 5 nM MBL, 10 μM nitrocefin, 30 mins
[3] = 50 μM compound, 5 nM MBL, 10 μM nitrocefin, 30 mins, read-out: NDM-1 percentage inhibition
[4] = read-out: VIM-2 percentage inhibition
[5] = read-out: NDM-1 percentage inhibition, 50 μM compound, 5 nM MBL, 10 μM nitrocefin, 30 mins

Chain of NDM-1 (C7C422 whole entry, looked up, species assumed): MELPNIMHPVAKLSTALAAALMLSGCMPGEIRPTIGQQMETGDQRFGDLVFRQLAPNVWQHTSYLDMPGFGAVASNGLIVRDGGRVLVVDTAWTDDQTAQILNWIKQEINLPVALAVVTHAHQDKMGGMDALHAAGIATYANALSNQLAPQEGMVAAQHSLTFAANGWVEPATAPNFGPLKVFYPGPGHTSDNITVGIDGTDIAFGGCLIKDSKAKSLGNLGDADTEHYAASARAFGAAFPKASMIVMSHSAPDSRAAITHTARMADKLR

| inhibition at 50 µM (VIM-2; [1]) | inhibition at 50 µM (NDM-1; [3]) | SMILES | other results |
| --- | --- | --- | --- |
| 18% | – | CC(C)c1cc(C(=O)O)nc2[nH][nH]c(=O)c12 [Compound 29] | – |
| – | – | O=C(O)c1ccnc2c(O)cccc12 [Compound 44] | VIM-2 percentage inhibition (VIM-2; [2]): 92% |
| 22% | 46% | Cc1nc2ccccc2c(=O)n1O [Compound 19] | – |
| 18% | 63% | Cc1nc(S)nc(O)c1CC(=O)O [Compound 8] | – |
| – | – | Oc1cccc2ncccc12 [Compound 35] | VIM-2 percentage inhibition (VIM-2; [2]): 6%; NDM-1 percentage inhibition (NDM-1; [2]): 6% |
| 25% | 53% | Cc1ccc(O)c(CO)n1 [Compound 28] | – |
| 4% | 51% | O=C(O)c1c(O)cccc1O [Compound 14] | – |
| 29% | 43% | Sc1nccc(-c2ccccn2)n1 [Compound 9] | – |
| – | – | Oc1ccnc(S)n1 [Compound 6] | inhibition at 50 µM (VIM-2; [4]): 13%; inhibition at 50 µM (NDM-1; [5]): 48% |
| – | – | O=C(O)c1cc(O)cc(C(=O)O)n1 [Compound 25] | inhibition at 50 µM (VIM-2; [4]): 27% |
| 9% | 44% | Nc1nc(S)ncc1C(=O)O [Compound 7] | – |
| 16% | – | Cc1cc(C)n(-c2nc3ccccc3c(=O)n2O)n1 [Compound 20] | – |
| 18% | 30% | O=C1c2ccccc2C(=O)N1O [Compound 18] | – |
| 21% | 66% | Cc1cc(C(=O)O)nc2[nH][nH]c(=O)c12 [Compound 30] | – |
| – | – | [O-][n+]1cccc2cccc(O)c21 [Compound 39] | VIM-2 percentage inhibition (VIM-2; [2]): 27%; NDM-1 percentage inhibition (NDM-1; [2]): 7% |
| 16% | 55% | CCOC(=O)CS [Compound 2] | – |
| 27% | – | O=c1c2ccccc2[nH]c(=S)n1O [Compound 21] | – |
| 25% | 51% | O=c1c(-c2cccs2)[n+]([O-])c2ccccc2n1O [Compound 23] | – |

| inhibition at 50 µM (VIM-2; [1]) | inhibition at 50 µM (NDM-1; [3]) | SMILES | other results |
| --- | --- | --- | --- |
| – | – | Oc1ccc2cccnc2c1 [Compound 37] | VIM-2 percentage inhibition (VIM-2; [2]): 3%; NDM-1 percentage inhibition (NDM-1; [2]): 8% |
| 18% | – | O=C(CCCCCCC(=O)Nc1ccccc1)NO [Compound 15, SAHA, reference compound] | – |
| 22% | 18% | CC(=O)c1ccc(O)c(O)c1O [Compound 12] | – |
| – | – | Nc1cccc2cccnc12 [Compound 38] | VIM-2 percentage inhibition (VIM-2; [2]): 43%; NDM-1 percentage inhibition (NDM-1; [2]): 3% |
| 9% | 12% | O=c1c(-c2ccco2)[n+]([O-])c2ccccc2n1O [Compound 22] | – |
| – | – | Oc1ccc2ncccc2c1 [Compound 36] | VIM-2 percentage inhibition (VIM-2; [2]): 7%; NDM-1 percentage inhibition (NDM-1; [2]): 1% |
| 20% | 50% | Cc1cc(C(=O)O)nc2[nH]c(=S)[nH]c(=O)c12 [Compound 11] | – |
| – | – | O=C(O)c1cccc(C(=O)O)n1 [Compound 24] | inhibition at 50 µM (VIM-2; [4]): 15%; inhibition at 50 µM (NDM-1; [5]): > 50% |
| 8% | 49% | O=C(NO)c1n[nH]c(Cl)n1 [Compound 16] | – |
| 21% | 8% | Sc1nccc(-c2cccs2)n1 [Compound 10] | – |
| – | – | Cc1ccc2cccc(O)c2n1 [Compound 40] | VIM-2 percentage inhibition (VIM-2; [2]): 77%; NDM-1 percentage inhibition (NDM-1; [2]): 9% |
| – | – | Oc1ccnc2ccccc12 [Compound 34] | VIM-2 percentage inhibition (VIM-2; [2]): 9%; NDM-1 percentage inhibition (NDM-1; [2]): 1% |
| – | – | Oc1cnc2ccccc2c1 [Compound 33, 3-hydroxyquinoline] | inhibition at 50 µM (VIM-2; read-out: VIM-2 percentage inhibition, 50 μM compound, 5 nM MBL, 10 μM nitrocefin, 30 mins): 95%; inhibition at 50 µM (NDM-1; [5]): 33% |
| – | – | Oc1ccc2ccccc2n1 [Compound 32] | VIM-2 percentage inhibition (VIM-2; [2]): 9%; NDM-1 percentage inhibition (NDM-1; [2]): 0% |
| 17% | 50% | CC(S)C(=O)O (centres unmarked) [Compound 3] | – |
| 5% | 58% | CC(C)Cc1cc(C(=O)O)nc(O)n1 [Compound 26] | – |
| – | – | O=C(O)CC(S)C(=O)O (centres unmarked) [Compound 4] | inhibition at 50 µM (VIM-2; [4]): 22%; inhibition at 50 µM (NDM-1; [5]): 39% |
| – | – | Oc1c(Br)cc(Br)c2cccnc12 [Compound 49] | VIM-2 percentage inhibition (VIM-2; [2]): 92% |
